Test system: 953936-095-R-J2-PDC spheroids with HUVEC/MSC, viability
Assay: Anticancer human tumor 953936-095-R-J2-PDC patient-derived cervical squamous cell carcinoma cell line growth inhibition [PI3K]
Settings: for IC50: curve of first compound; for viability, T/C: stronger effect = lower value
Method in brief: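 High-throughput combination screen: PI3K inhibitors crossed with targeted small molecules on complex spheroids of tumor cells, HUVEC and MSCs at 37 degrees C, 5% CO2. Top concentration was at or near clinical Cmax (otherwise 10 microM), with half-log decrements.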

[1] = second compound 0.00316 µM, first compound 0.0316 µM
[2] = second compound 0.00316 µM, first compound 0.1 µM
[3] = second compound 0.00316 µM, first compound 0.316 µM
[4] = second compound 0.00316 µM, first compound 1 µM
[5] = second compound 0.00316 µM, first compound 3.16 µM
[6] = second compound 0.00316 µM, first compound 10 µM
[7] = second compound 0.01 µM, first compound 0.0316 µM
[8] = second compound 0.01 µM, first compound 0.1 µM
[9] = second compound 0.01 µM, first compound 0.316 µM
[10] = second compound 0.01 µM, first compound 1 µM
[11] = second compound 0.01 µM, first compound 3.16 µM
[12] = second compound 0.01 µM, first compound 10 µM
[13] = second compound 0.0316 µM, first compound 0.0316 µM
[14] = second compound 0.0316 µM, first compound 0.1 µM
[15] = second compound 0.0316 µM, first compound 0.316 µM
[16] = second compound 0.0316 µM, first compound 1 µM
[17] = second compound 0.0316 µM, first compound 3.16 µM
[18] = second compound 0.0316 µM, first compound 10 µM
[19] = second compound 0.1 µM, first compound 0.0316 µM
[20] = second compound 0.1 µM, first compound 0.1 µM
[21] = second compound 0.1 µM, first compound 0.316 µM
[22] = second compound 0.1 µM, first compound 1 µM
[23] = second compound 0.1 µM, first compound 3.16 µM
[24] = second compound 0.1 µM, first compound 10 µM
[25] = second compound 0.316 µM, first compound 0.0316 µM
[26] = second compound 0.316 µM, first compound 0.1 µM
[27] = second compound 0.316 µM, first compound 0.316 µM
[28] = second compound 0.316 µM, first compound 1 µM
[29] = second compound 0.316 µM, first compound 3.16 µM
[30] = second compound 0.316 µM, first compound 10 µM
[31] = second compound 1 µM, first compound 0.0316 µM
[32] = second compound 1 µM, first compound 0.1 µM
[33] = second compound 1 µM, first compound 0.316 µM
[34] = second compound 1 µM, first compound 1 µM
[35] = second compound 1 µM, first compound 3.16 µM
[36] = second compound 1 µM, first compound 10 µM
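Further: spheroids exposed to compounds for seven days before read-out.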

C[C@@H](NC(=O)c1ncnc(N)c1Cl)c1ncc(C(=O)Nc2cc(C(F)(F)F)c(Cl)cn2)s1 + COc1c(OCCCN2CCOCC2)ccc2c3n(c(=NC(=O)c4cnc(N)nc4)nc12)CCN3
IC50 (second compound 0.00316 µM): > 10 µM
IC50 (second compound 0.01 µM): > 10 µM
IC50 (second compound 0.0316 µM): < 0.0316 µM
IC50 (second compound 0.1 µM): < 0.0316 µM
IC50 (second compound 0.316 µM): < 0.0316 µM
IC50 (second compound 1 µM): < 0.0316 µM
viability, T/C [1]: 89.7%
viability, T/C [2]: 91.8%
viability, T/C [3]: 88.7%
viability, T/C [4]: 104%
viability, T/C [5]: 110%
viability, T/C [6]: 106%
viability, T/C [7]: 73.7%
viability, T/C [8]: 77.9%
viability, T/C [9]: 84.7%
viability, T/C [10]: 86.9%
viability, T/C [11]: 85.5%
viability, T/C [12]: 77.3%
viability, T/C [13]: 40.9%
viability, T/C [14]: 50%
viability, T/C [15]: 48.1%
viability, T/C [16]: 49.7%
viability, T/C [17]: 54.9%
viability, T/C [18]: 48.7%
viability, T/C [19]: 19.3%
viability, T/C [20]: 22%
viability, T/C [21]: 22.8%
viability, T/C [22]: 21.9%
viability, T/C [23]: 23%
viability, T/C [24]: 20.7%
viability, T/C [25]: 7.52%
viability, T/C [26]: 8.48%
viability, T/C [27]: 7.48%
viability, T/C [28]: 9.8%
viability, T/C [29]: 10.3%
viability, T/C [30]: 7.69%
viability, T/C [31]: 1.88%
viability, T/C [32]: 2.05%
viability, T/C [33]: 2.83%
viability, T/C [34]: 2.99%
viability, T/C [35]: 3.46%
viability, T/C [36]: 3.33%

Cn1ncc(Cl)c1-c1cc(C(=O)NC(CN)Cc2cccc(F)c2)sc1Cl (stereo unspecified) + COc1c(OCCCN2CCOCC2)ccc2c3n(c(=NC(=O)c4cnc(N)nc4)nc12)CCN3
IC50 (second compound 0.00316 µM): 0.486 µM
IC50 (second compound 0.01 µM): 0.337 µM
IC50 (second compound 0.0316 µM): < 0.0316 µM
IC50 (second compound 0.1 µM): < 0.0316 µM
IC50 (second compound 0.316 µM): < 0.0316 µM
IC50 (second compound 1 µM): < 0.0316 µM
viability, T/C [1]: 81.2%
viability, T/C [2]: 85.4%
viability, T/C [3]: 54.1%
viability, T/C [4]: 36.5%
viability, T/C [5]: 17.8%
viability, T/C [6]: 10.2%
viability, T/C [7]: 69.4%
viability, T/C [8]: 68.6%
viability, T/C [9]: 49.8%
viability, T/C [10]: 28.7%
viability, T/C [11]: 14.4%
viability, T/C [12]: 8.14%
viability, T/C [13]: 39.1%
viability, T/C [14]: 36.8%
viability, T/C [15]: 32.5%
viability, T/C [16]: 19.1%
viability, T/C [17]: 9.8%
viability, T/C [18]: 4.58%
viability, T/C [19]: 21.8%
viability, T/C [20]: 17.8%
viability, T/C [21]: 14.3%
viability, T/C [22]: 12.9%
viability, T/C [23]: 6.24%
viability, T/C [24]: 2.41%
viability, T/C [25]: 5.73%
viability, T/C [26]: 5.77%
viability, T/C [27]: 6.01%
viability, T/C [28]: 3.54%
viability, T/C [29]: 3.19%
viability, T/C [30]: 1.52%
viability, T/C [31]: 1.54%
viability, T/C [32]: 1.61%
viability, T/C [33]: 1.15%
viability, T/C [34]: 1.37%
viability, T/C [35]: 1.11%
viability, T/C [36]: 0.46%

Cn1ncnc1[C@H]1c2n[nH]c(=O)c3cc(F)cc(c23)N[C@@H]1c1ccc(F)cc1 + COc1c(OCCCN2CCOCC2)ccc2c3n(c(=NC(=O)c4cnc(N)nc4)nc12)CCN3
IC50 (second compound 0.00316 µM): > 0.1 µM
IC50 (second compound 0.01 µM): > 0.1 µM
IC50 (second compound 0.0316 µM): < 0.000316 µM
IC50 (second compound 0.1 µM): < 0.000316 µM
IC50 (second compound 0.316 µM): < 0.000316 µM
IC50 (second compound 1 µM): < 0.000316 µM
viability, T/C (second compound 0.00316 µM, first compound 0.000316 µM): 83%
viability, T/C (second compound 0.00316 µM, first compound 0.001 µM): 102%
viability, T/C (second compound 0.00316 µM, first compound 0.00316 µM): 93.9%
viability, T/C (second compound 0.00316 µM, first compound 0.01 µM): 85.2%
viability, T/C [1]: 81.6%
viability, T/C [2]: 78.5%
viability, T/C (second compound 0.01 µM, first compound 0.000316 µM): 71%
viability, T/C (second compound 0.01 µM, first compound 0.001 µM): 85.1%
viability, T/C (second compound 0.01 µM, first compound 0.00316 µM): 81.1%
viability, T/C (second compound 0.01 µM, first compound 0.01 µM): 72.1%
viability, T/C [7]: 67.3%
viability, T/C [8]: 68.2%
viability, T/C (second compound 0.0316 µM, first compound 0.000316 µM): 44.6%
viability, T/C (second compound 0.0316 µM, first compound 0.001 µM): 39.1%
viability, T/C (second compound 0.0316 µM, first compound 0.00316 µM): 41%
viability, T/C (second compound 0.0316 µM, first compound 0.01 µM): 43%
viability, T/C [13]: 39.3%
viability, T/C [14]: 35.8%
viability, T/C (second compound 0.1 µM, first compound 0.000316 µM): 19%
viability, T/C (second compound 0.1 µM, first compound 0.001 µM): 18.1%
viability, T/C (second compound 0.1 µM, first compound 0.00316 µM): 18.2%
viability, T/C (second compound 0.1 µM, first compound 0.01 µM): 18.9%
viability, T/C [19]: 19.9%
viability, T/C [20]: 17.4%
viability, T/C (second compound 0.316 µM, first compound 0.000316 µM): 6.63%
viability, T/C (second compound 0.316 µM, first compound 0.001 µM): 6.64%
viability, T/C (second compound 0.316 µM, first compound 0.00316 µM): 7.07%
viability, T/C (second compound 0.316 µM, first compound 0.01 µM): 7.8%
viability, T/C [25]: 6.66%
viability, T/C [26]: 5.37%
viability, T/C (second compound 1 µM, first compound 0.000316 µM): 1.68%
viability, T/C (second compound 1 µM, first compound 0.001 µM): 1.6%
viability, T/C (second compound 1 µM, first compound 0.00316 µM): 1.91%
viability, T/C (second compound 1 µM, first compound 0.01 µM): 1.67%
viability, T/C [31]: 1.93%
viability, T/C [32]: 1.28%
